Assays:
[1] = tested on: E. coli; assay: Paper disc experiment (clear zone); assay type: cell-based, Escherichia coli; settings: 24 hours, 35° C.
Description: (§1) 10^5 cfu/ml of E. coli and S. aureus were sub-cultured in a Mueller Hinton agar, respectively, and then smeared.
(§2) PVPI, ginseng extract, bronopol, PA, NS and PD were introduced to the paper disc, respectively, and left and dried for 5 to 10 minutes. The dried paper disc was put on a culture medium smeared with the E. coli and S. aureus with a sufficient interval, and cultured for 24 hours in a 35° C. incubator and then the size of clear zone was examined and the result is summarized in the following Table 2.

[2] = tested on: S. aureus; assay: Paper disc experiment (clear zone); assay type: cell-based, Staphylococcus aureus; settings: 24 hours, 35° C.
Description: as §1, §2

[3] = tested on: E. coli; assay: Shaking flask method, materials in maintenance medium; assay type: cell-based, Escherichia coli; settings: 35° C., concentration of each material (wt %)
Description: 3. Experiment Using Shaking Flask Method
A maintenance medium produced with 1% of nutrient broth and 0.5% of NaCl and inoculated with about 10^5 cfu/ml of E. coli was prepared. Materials of PVPI, ginseng extract, bronopol, PA and NS were introduced to the medium, respectively, and reacted at 35° C., and the antibiotic effect was examined using a pour plate method after 6 hours and 24 hours had been passed.
The antibiotic effect in the Table 3 was calculated using the following equation.
Me: Cell number of maintenance medium to which each material is added
Mc: Cell number of maintenance medium to which each material is not added

[4] = tested on: staphylococcus aureus (S. aureus); assay: Measurement of minimal inhibitory concentration (MIC), turbidity; assay type: cell-based; settings: for minimal inhibitory concentration, S. aureus: Table 1, 35° C., 14-16 hours; for S. aureus MIC value: Table 2
Excerpt: (§3) 1. Measurement of Minimal Inhibitory Concentration (MIC)
(§4) Polyvinylpyrrolidone iodine (hereinafter, abbreviated as “PVPI”), phthalaldehyde (hereinafter, abbreviated as “PA”), potassium disulphite (hereinafter, abbreviated as “PD”) bronopol, norspermidine (hereinafter, abbreviated as “NS), and the ginseng extract were sequentially diluted, respectively, and prepared with various concentrations to prepare MIC measurement specimens. About 10^4-5 cfu/ml of escherichia coli (E. coli) and about 10^4˜5 cfu/ml of staphylococcus aureus (S. aureus) were added to the MIC measurement specimens, respectively. The specimens were cultured at 35° C. for 14-16 hours and then the turbidity was examined, respectively.
(§5) As a comparative example, specimens to which the E. coli and the S. aureus were added to distilled water, respectively, were cultured at the same time, and the minimal inhibitory concentration of the specimens was measured with reference to specimens subsequent to the culture and the turbidity of the comparative example subsequent to the culture.

[5] = tested on: escherichia coli (E. coli); assay: as above; assay type: cell-based; settings: for minimal inhibitory concentration, E. coli: Table 1, 35° C., 14-16 hours; for E. coli MIC value: Table 2; for MIC value of E. coli (wt %): in Table 3
Excerpt: as §3, §4, §5

Row | Molecule | E. coli clear zone (mm) [1] | S. aureus clear zone (mm) [2] | Antibiotic effect after 6 hours [3] | Antibiotic effect after 24 hours [3] | minimal inhibitory concentration, S. aureus [4] | S. aureus MIC value [4] | minimal inhibitory concentration, E. coli [5] | E. coli MIC value [5] | MIC value of E. coli (wt %) [5]
1 | O=[N+]([O-])C(Br)(CO)CO [Bronopol, bronopol, reference compound] | 10 mm | 10 mm | 99.99% | 100% | Less than 0.0009% weight % | 0.156% weight % | Less than 0.0009% weight % | 0.156% weight % | 0.156% wt %
2 | NCCCNCCCN [NS, norspermidine] | 14 mm | 23 mm | 99.99% | 100% | 0.078% weight % | 0.078% weight % | 0.312% weight % | 0.312% weight % | 0.312% wt %
3 | O=Cc1ccccc1C=O [PA, phthalaldehyde] | 10 mm | 11 mm | 99.99% | 100% | 0.156% weight % | < 0.0009% weight % | 0.156% weight % | < 0.0009% weight % | < 0.0009% wt %
4 | O=S([O-])OS(=O)[O-].[K+].[K+] [PD, potassium disulphite] | 12 mm | 32 mm |  |  | 0.078% weight % | 0.078% weight % | 0.156% weight % | 0.156% weight % | 
5 | Polyvinylpyrrolidone iodine [PVPI, reference compound] | 12 mm | 30 mm | 99.99% | 100% | 1.875% weight % | 1.875% weight % | 1.875% weight % | 1.875% weight % | 1.875% wt %
